{"source": "ChEMBL document CHEMBL5046315", "about": "“CRCM5484: A BET-BDII Selective Compound with Differential Anti-leukemic Drug Modulation” (J Med Chem, 2022)", "key": {"[1]": {"target": "Chromatin remodeling regulator CECR2 (Homo sapiens) (UniProt Q9BXF3)", "sequence (Q9BXF3 whole entry, looked up, the tested form may be a part)": "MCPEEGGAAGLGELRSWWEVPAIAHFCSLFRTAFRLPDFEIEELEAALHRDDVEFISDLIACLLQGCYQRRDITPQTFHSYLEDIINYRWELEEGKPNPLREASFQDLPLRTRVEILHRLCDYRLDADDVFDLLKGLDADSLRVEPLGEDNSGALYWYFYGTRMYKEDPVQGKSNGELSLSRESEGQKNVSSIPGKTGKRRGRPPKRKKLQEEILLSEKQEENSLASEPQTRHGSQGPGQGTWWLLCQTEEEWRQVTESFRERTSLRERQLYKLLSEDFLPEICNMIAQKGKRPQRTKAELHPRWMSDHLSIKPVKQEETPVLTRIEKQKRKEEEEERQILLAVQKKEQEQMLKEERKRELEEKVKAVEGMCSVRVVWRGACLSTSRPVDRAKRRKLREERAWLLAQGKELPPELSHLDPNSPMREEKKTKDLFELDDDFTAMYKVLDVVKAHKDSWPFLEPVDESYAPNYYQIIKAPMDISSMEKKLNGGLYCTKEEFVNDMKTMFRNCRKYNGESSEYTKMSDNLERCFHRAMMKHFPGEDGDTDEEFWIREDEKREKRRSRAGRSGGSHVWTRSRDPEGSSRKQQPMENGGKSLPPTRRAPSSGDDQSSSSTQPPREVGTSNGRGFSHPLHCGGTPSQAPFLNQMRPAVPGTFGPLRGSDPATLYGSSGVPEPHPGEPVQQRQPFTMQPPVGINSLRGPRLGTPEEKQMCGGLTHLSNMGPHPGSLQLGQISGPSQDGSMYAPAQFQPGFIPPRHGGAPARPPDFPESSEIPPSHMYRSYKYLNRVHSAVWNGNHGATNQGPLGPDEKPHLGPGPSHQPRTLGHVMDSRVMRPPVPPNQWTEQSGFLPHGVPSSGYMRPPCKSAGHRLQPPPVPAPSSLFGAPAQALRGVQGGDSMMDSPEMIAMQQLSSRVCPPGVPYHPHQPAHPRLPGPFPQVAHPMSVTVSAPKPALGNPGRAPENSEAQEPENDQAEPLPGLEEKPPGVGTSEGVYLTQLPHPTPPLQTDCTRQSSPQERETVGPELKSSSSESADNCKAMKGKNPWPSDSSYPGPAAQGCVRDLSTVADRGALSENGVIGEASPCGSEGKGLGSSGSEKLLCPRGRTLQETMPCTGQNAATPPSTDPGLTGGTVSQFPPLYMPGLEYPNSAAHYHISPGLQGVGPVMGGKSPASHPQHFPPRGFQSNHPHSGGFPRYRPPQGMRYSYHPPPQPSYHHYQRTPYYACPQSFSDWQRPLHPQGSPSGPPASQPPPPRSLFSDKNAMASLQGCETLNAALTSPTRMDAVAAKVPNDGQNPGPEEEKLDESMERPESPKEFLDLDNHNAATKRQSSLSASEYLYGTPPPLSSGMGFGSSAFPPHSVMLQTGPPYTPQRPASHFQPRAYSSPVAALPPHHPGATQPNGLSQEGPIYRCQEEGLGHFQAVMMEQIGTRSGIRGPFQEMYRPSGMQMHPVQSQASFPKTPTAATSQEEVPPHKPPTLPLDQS", "experiment": "Binding affinity to partial length human CECR2 (P423 to D543 residues) expressed in bacterial system at 1 uM by BROMOscan method relative to control"}, "[2]": {"target": "Bromodomain-containing protein 2 (Homo sapiens, UniProt P25440)", "sequence (P25440 whole entry, looked up, the tested form may be a part)": "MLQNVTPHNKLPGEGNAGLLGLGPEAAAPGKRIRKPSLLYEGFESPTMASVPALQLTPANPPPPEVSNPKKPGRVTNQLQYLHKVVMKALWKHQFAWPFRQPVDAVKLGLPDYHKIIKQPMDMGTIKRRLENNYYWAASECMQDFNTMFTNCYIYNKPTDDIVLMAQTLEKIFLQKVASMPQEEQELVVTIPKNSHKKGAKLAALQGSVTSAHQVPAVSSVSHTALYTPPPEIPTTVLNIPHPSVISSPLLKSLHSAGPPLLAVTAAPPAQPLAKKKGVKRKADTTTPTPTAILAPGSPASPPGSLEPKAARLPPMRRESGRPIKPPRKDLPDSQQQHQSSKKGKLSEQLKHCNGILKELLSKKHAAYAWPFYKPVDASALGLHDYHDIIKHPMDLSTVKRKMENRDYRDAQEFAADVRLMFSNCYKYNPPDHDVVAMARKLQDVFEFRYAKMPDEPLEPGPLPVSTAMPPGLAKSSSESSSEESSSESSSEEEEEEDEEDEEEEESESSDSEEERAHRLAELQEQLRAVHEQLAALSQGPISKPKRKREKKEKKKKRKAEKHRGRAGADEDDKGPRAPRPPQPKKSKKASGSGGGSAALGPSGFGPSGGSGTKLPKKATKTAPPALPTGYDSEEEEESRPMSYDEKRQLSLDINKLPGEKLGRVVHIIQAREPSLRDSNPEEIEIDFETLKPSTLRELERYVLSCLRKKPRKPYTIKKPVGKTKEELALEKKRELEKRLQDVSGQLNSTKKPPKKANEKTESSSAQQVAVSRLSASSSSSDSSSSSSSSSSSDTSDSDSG", "experiment": "Inhibition of human partial length BRD2-BD2 (E348 to D455 residues) expressed in bacterial system at 1 uM by BROMOscan method relative to control"}, "[3]": {"target": "Bromodomain-containing protein 3 (Homo sapiens, UniProt Q15059)", "sequence (Q15059 2-726 limits assumed)": "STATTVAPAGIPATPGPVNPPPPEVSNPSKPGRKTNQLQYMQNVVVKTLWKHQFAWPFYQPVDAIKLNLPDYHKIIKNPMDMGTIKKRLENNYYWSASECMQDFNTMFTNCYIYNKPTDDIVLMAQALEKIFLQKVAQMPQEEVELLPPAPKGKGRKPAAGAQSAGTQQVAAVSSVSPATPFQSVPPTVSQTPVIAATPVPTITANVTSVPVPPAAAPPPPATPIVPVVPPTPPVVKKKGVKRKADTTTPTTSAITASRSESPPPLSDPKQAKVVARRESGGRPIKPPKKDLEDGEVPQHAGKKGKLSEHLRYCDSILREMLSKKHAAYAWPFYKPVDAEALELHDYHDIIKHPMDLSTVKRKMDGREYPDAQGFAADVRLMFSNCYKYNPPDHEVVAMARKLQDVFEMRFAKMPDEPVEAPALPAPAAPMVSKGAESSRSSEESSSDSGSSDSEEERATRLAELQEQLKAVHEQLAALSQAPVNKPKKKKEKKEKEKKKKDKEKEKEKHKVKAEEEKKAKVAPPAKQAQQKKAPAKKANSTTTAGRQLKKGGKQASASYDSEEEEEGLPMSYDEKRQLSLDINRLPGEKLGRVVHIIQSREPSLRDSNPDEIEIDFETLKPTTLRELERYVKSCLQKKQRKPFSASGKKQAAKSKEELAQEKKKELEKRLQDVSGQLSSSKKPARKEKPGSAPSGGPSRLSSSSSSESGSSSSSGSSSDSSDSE", "experiment": "Inhibition of human partial length BRD3-BD2 (G306 to P416 residues) expressed in bacterial system at 1 uM by BROMOscan method relative to control"}, "[4]": {"tested_on": "Acute myeloid leukemic cell", "experiment": "Potentiation of vorinostat-induced antileukemic activity against patient derived mouse xenografted acute myeloid leukemic cells assessed as cell viability at 0.16 to 10 uM in absence of bone-marrow derived stromal cell-conditioned medium measured after 72 to 144 hrs by cell-titre glo luminescent assay", "format": "functional, cell-based", "conditions": "Homo sapiens, dose 0.16-10 µM, time lower […], time upper 144.0 hrs"}, "CCRF-CEM [5]": {"tested_on": "CCRF-CEM", "experiment": "Potentiation of 17AAG-induced antileukemic activity against human CCRF-CEM cells at 4.3 uM in presence of bone-marrow derived stromal cell-conditioned medium", "format": "functional, cell-based"}, "CCRF-CEM [6]": {"tested_on": "CCRF-CEM", "experiment": "Potentiation of alisertib-induced antileukemic activity against human CCRF-CEM cells at 4.3 uM in presence of bone-marrow derived stromal cell-conditioned medium", "format": "functional, cell-based"}, "CCRF-CEM [7]": {"tested_on": "CCRF-CEM", "experiment": "Potentiation of AT9283-induced antileukemic activity against human CCRF-CEM cells at 4.3 uM in presence of bone-marrow derived stromal cell-conditioned medium", "format": "functional, cell-based"}, "CCRF-CEM [8]": {"tested_on": "CCRF-CEM", "experiment": "Potentiation of cyclopamine-induced antileukemic activity against human CCRF-CEM cells at 4.3 uM in presence of bone-marrow derived stromal cell-conditioned medium", "format": "functional, cell-based"}, "CCRF-CEM [9]": {"tested_on": "CCRF-CEM", "experiment": "Potentiation of decitabine-induced antileukemic activity against human CCRF-CEM cells at 4.3 uM in presence of bone-marrow derived stromal cell-conditioned medium", "format": "functional, cell-based"}, "CCRF-CEM [10]": {"tested_on": "CCRF-CEM", "experiment": "Potentiation of erlotinib-induced antileukemic activity against human CCRF-CEM cells at 4.3 uM in presence of bone-marrow derived stromal cell-conditioned medium", "format": "functional, cell-based"}, "CCRF-CEM [11]": {"tested_on": "CCRF-CEM", "experiment": "Potentiation of gileritinib-induced antileukemic activity against human CCRF-CEM cells at 4.3 uM in presence of bone-marrow derived stromal cell-conditioned medium", "format": "functional, cell-based"}, "CCRF-CEM [12]": {"tested_on": "CCRF-CEM", "experiment": "Potentiation of idasanutlin-induced antileukemic activity against human CCRF-CEM cells at 4.3 uM in presence of bone-marrow derived stromal cell-conditioned medium", "format": "functional, cell-based"}, "CCRF-CEM [13]": {"tested_on": "CCRF-CEM", "experiment": "Potentiation of quizartinib-induced antileukemic activity against human CCRF-CEM cells at 4.3 uM in presence of bone-marrow derived stromal cell-conditioned medium", "format": "functional, cell-based"}, "CCRF-CEM [14]": {"tested_on": "CCRF-CEM", "experiment": "Potentiation of ruxolitinib-induced antileukemic activity against human CCRF-CEM cells at 4.3 uM in presence of bone-marrow derived stromal cell-conditioned medium", "format": "functional, cell-based"}, "CCRF-CEM [15]": {"tested_on": "CCRF-CEM", "experiment": "Potentiation of seliciclib-induced antileukemic activity against human CCRF-CEM cells at 4.3 uM in presence of bone-marrow derived stromal cell-conditioned medium", "format": "functional, cell-based"}, "CCRF-CEM [16]": {"tested_on": "CCRF-CEM", "experiment": "Potentiation of VX680-induced antileukemic activity against human CCRF-CEM cells at 4.3 uM in presence of bone-marrow derived stromal cell-conditioned medium", "format": "functional, cell-based"}, "U-937 [17]": {"tested_on": "U-937", "experiment": "Potentiation of AraC-induced antileukemic activity against human U-937 cells at 4.3 uM in presence of bone-marrow derived stromal cell-conditioned medium", "format": "functional, cell-based"}, "U-937 [18]": {"tested_on": "U-937", "experiment": "Potentiation of arsenic-induced antileukemic activity against human U-937 cells at 4.3 uM in presence of bone-marrow derived stromal cell-conditioned medium", "format": "functional, cell-based"}, "U-937 [19]": {"tested_on": "U-937", "experiment": "Potentiation of bosutinib-induced antileukemic activity against human U-937 cells at 4.3 uM in presence of bone-marrow derived stromal cell-conditioned medium", "format": "functional, cell-based"}, "U-937 [20]": {"tested_on": "U-937", "experiment": "Potentiation of crenolatinib-induced antileukemic activity against human U-937 cells at 4.3 uM in presence of bone-marrow derived stromal cell-conditioned medium", "format": "functional, cell-based"}, "U-937 [21]": {"tested_on": "U-937", "experiment": "Potentiation of EPZ5676-induced antileukemic activity against human U-937 cells at 4.3 uM in presence of bone-marrow derived stromal cell-conditioned medium", "format": "functional, cell-based"}, "U-937 [22]": {"tested_on": "U-937", "experiment": "Potentiation of etoposide-induced antileukemic activity against human U-937 cells at 4.3 uM in presence of bone-marrow derived stromal cell-conditioned medium", "format": "functional, cell-based"}, "U-937 [23]": {"tested_on": "U-937", "experiment": "Potentiation of GSK126-induced antileukemic activity against human U-937 cells at 4.3 uM in presence of bone-marrow derived stromal cell-conditioned medium", "format": "functional, cell-based"}, "U-937 [24]": {"tested_on": "U-937", "experiment": "Potentiation of hydroxychloroquine-induced antileukemic activity against human U-937 cells at 4.3 uM in presence of bone-marrow derived stromal cell-conditioned medium", "format": "functional, cell-based"}, "U-937 [25]": {"tested_on": "U-937", "experiment": "Potentiation of imatinib-induced antileukemic activity against human U-937 cells at 4.3 uM in presence of bone-marrow derived stromal cell-conditioned medium", "format": "functional, cell-based"}, "U-937 [26]": {"tested_on": "U-937", "experiment": "Potentiation of midostaurin-induced antileukemic activity against human U-937 cells at 4.3 uM in presence of bone-marrow derived stromal cell-conditioned medium", "format": "functional, cell-based"}, "U-937 [27]": {"tested_on": "U-937", "experiment": "Potentiation of panobinostat-induced antileukemic activity against human U-937 cells at 4.3 uM in presence of bone-marrow derived stromal cell-conditioned medium", "format": "functional, cell-based"}, "U-937 [28]": {"tested_on": "U-937", "experiment": "Potentiation of quizartinib-induced antileukemic activity against human U-937 cells at 4.3 uM in presence of bone-marrow derived stromal cell-conditioned medium", "format": "functional, cell-based"}, "U-937 [29]": {"tested_on": "U-937", "experiment": "Potentiation of vermurafenib-induced antileukemic activity against human U-937 cells at 4.3 uM in presence of bone-marrow derived stromal cell-conditioned medium", "format": "functional, cell-based"}, "MOLM-14 [30]": {"tested_on": "MOLM-14", "experiment": "Potentiation of 17AAG-induced antileukemic activity against human MOLM-14 cells at 4.3 uM in presence of bone-marrow derived stromal cell-conditioned medium", "format": "functional, cell-based"}, "MOLM-14 [31]": {"tested_on": "MOLM-14", "experiment": "Potentiation of AGI-5198-induced antileukemic activity against human MOLM-14 cells at 4.3 uM in presence of bone-marrow derived stromal cell-conditioned medium", "format": "functional, cell-based"}, "MOLM-14 [32]": {"tested_on": "MOLM-14", "experiment": "Potentiation of bortezomib-induced antileukemic activity against human MOLM-14 cells at 4.3 uM in presence of bone-marrow derived stromal cell-conditioned medium", "format": "functional, cell-based"}, "MOLM-14 [33]": {"tested_on": "MOLM-14", "experiment": "Potentiation of daunorubicine-induced antileukemic activity against human MOLM-14 cells at 4.3 uM in presence of bone-marrow derived stromal cell-conditioned medium", "format": "functional, cell-based"}, "MOLM-14 [34]": {"tested_on": "MOLM-14", "experiment": "Potentiation of JQ1-induced antileukemic activity against human MOLM-14 cells at 4.3 uM in presence of bone-marrow derived stromal cell-conditioned medium", "format": "functional, cell-based"}, "MOLM-14 [35]": {"tested_on": "MOLM-14", "experiment": "Potentiation of -nutlin 3-induced antileukemic activity against human MOLM-14 cells at 4.3 uM in presence of bone-marrow derived stromal cell-conditioned medium", "format": "functional, cell-based"}, "MOLM-14 [36]": {"tested_on": "MOLM-14", "experiment": "Potentiation of SGI-1776-induced antileukemic activity against human MOLM-14 cells at 4.3 uM in presence of bone-marrow derived stromal cell-conditioned medium", "format": "functional, cell-based"}, "MOLM-14 [37]": {"tested_on": "MOLM-14", "experiment": "Potentiation of tipifarnib-induced antileukemic activity against human MOLM-14 cells at 4.3 uM in presence of bone-marrow derived stromal cell-conditioned medium", "format": "functional, cell-based"}, "MOLM-14 [38]": {"tested_on": "MOLM-14", "experiment": "Potentiation of venetoclax-induced antileukemic activity against human MOLM-14 cells at 4.3 uM in presence of bone-marrow derived stromal cell-conditioned medium", "format": "functional, cell-based"}, "MOLM-14 [39]": {"tested_on": "MOLM-14", "experiment": "Potentiation of VX680-induced antileukemic activity against human MOLM-14 cells at 4.3 uM in presence of bone-marrow derived stromal cell-conditioned medium", "format": "functional, cell-based"}}, "note": "Calls of active or inactive are those of the source. The rule behind the calls is not given here."}
{"smiles": "CC(=O)N1CCc2c(sc3nc(SCC(=O)Nc4cccnc4C)n(Cc4ccco4)c(=O)c23)C1", "values": [{"measurement": "Activity", "setting": "[1]", "value": 54, "unit": "%"}, {"measurement": "inhibition", "setting": "[2]", "value": 37, "unit": "%"}, {"measurement": "inhibition", "setting": "[3]", "value": 36, "unit": "%"}, {"measurement": "Activity", "setting": "[4]", "value": "inactive"}, {"measurement": "Activity", "setting": "CCRF-CEM [5]", "value": "inactive"}, {"measurement": "Activity", "setting": "CCRF-CEM [6]", "value": "inactive"}, {"measurement": "Activity", "setting": "CCRF-CEM [7]", "value": "inactive"}, {"measurement": "Activity", "setting": "CCRF-CEM [8]", "value": "inactive"}, {"measurement": "Activity", "setting": "CCRF-CEM [9]", "value": "inactive"}, {"measurement": "Activity", "setting": "CCRF-CEM [10]", "value": "inactive"}, {"measurement": "Activity", "setting": "CCRF-CEM [11]", "value": "inactive"}, {"measurement": "Activity", "setting": "CCRF-CEM [12]", "value": "inactive"}, {"measurement": "Activity", "setting": "CCRF-CEM [13]", "value": "inactive"}, {"measurement": "Activity", "setting": "CCRF-CEM [14]", "value": "inactive"}, {"measurement": "Activity", "setting": "CCRF-CEM [15]", "value": "inactive"}, {"measurement": "Activity", "setting": "CCRF-CEM [16]", "value": "inactive"}, {"measurement": "Activity", "setting": "U-937 [17]", "value": "inactive"}, {"measurement": "Activity", "setting": "U-937 [18]", "value": "inactive"}, {"measurement": "Activity", "setting": "U-937 [19]", "value": "inactive"}, {"measurement": "Activity", "setting": "U-937 [20]", "value": "inactive"}, {"measurement": "Activity", "setting": "U-937 [21]", "value": "inactive"}, {"measurement": "Activity", "setting": "U-937 [22]", "value": "inactive"}, {"measurement": "Activity", "setting": "U-937 [23]", "value": "inactive"}, {"measurement": "Activity", "setting": "U-937 [24]", "value": "inactive"}, {"measurement": "Activity", "setting": "U-937 [25]", "value": "inactive"}, {"measurement": "Activity", "setting": "U-937 [26]", "value": "inactive"}, {"measurement": "Activity", "setting": "U-937 [27]", "value": "inactive"}, {"measurement": "Activity", "setting": "U-937 [28]", "value": "inactive"}, {"measurement": "Activity", "setting": "U-937 [29]", "value": "inactive"}, {"measurement": "Activity", "setting": "MOLM-14 [30]", "value": "inactive"}, {"measurement": "Activity", "setting": "MOLM-14 [31]", "value": "inactive"}, {"measurement": "Activity", "setting": "MOLM-14 [32]", "value": "inactive"}, {"measurement": "Activity", "setting": "MOLM-14 [33]", "value": "inactive"}, {"measurement": "Activity", "setting": "MOLM-14 [34]", "value": "inactive"}, {"measurement": "Activity", "setting": "MOLM-14 [35]", "value": "inactive"}, {"measurement": "Activity", "setting": "MOLM-14 [36]", "value": "inactive"}, {"measurement": "Activity", "setting": "MOLM-14 [37]", "value": "inactive"}, {"measurement": "Activity", "setting": "MOLM-14 [38]", "value": "inactive"}, {"measurement": "Activity", "setting": "MOLM-14 [39]", "value": "inactive"}]}
